From patent US20080009418A1, “Selective Inhibitors” (Alchemia LTD., priority 2004, published 2008)

Tests used:
[1] = molecular target: T1, Human Melanocortin (MC3) (Homo sapiens, UniProt P41968); experiment: Radioligand binding, human melanocortin MC3 membranes, FlashPlate, [125I]-NDP-αMSH; conditions: compound at 10 μM; for A3 radioligand binding inhibition: human melanocortin MC3 membranes
T1 construct: purchased Perkin Elmer Biosignal
In short: (§1)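 Cloned human receptor membranes were coated onto FlashPlate wells and incubated with radioligand and compound (added from a 0.5 mM DMSO daughter plate) for 1 hour at room temperature in the dark. Scintillation counting gave percent inhibition, with DMSO defining total and reference ligand defining non-specific binding.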

[2] = molecular target: T2, Human neurokinin (NK1) (Homo sapiens, UniProt P25103); experiment: Radioligand binding, human neurokinin NK1 membranes, filtration, [125I]-Substance P; conditions: compound at 10 μM; for A8 radioligand binding inhibition: human neurokinin NK1 membranes
T2 construct: purchased Perkin Elmer Biosignal
T2 sequence (P25103 whole entry): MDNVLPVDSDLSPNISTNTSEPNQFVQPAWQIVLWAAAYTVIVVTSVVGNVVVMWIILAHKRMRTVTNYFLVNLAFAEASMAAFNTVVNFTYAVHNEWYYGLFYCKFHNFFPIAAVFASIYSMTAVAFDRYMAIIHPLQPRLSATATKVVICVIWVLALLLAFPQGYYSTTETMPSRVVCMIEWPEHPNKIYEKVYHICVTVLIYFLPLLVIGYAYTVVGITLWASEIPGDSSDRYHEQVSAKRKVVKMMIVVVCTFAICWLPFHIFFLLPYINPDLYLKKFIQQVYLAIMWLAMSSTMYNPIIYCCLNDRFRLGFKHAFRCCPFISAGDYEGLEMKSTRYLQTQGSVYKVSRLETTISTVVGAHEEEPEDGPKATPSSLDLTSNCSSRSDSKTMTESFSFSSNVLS
In short: (§2)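 Filtration binding on cloned human receptor membranes (1 Unit/well), [125I]-Substance P for NK1 and [3H]-Diprenorphine for KOP, 1 h at room temperature. Filters PEI-presoaked, washed with cold 50 mM Tris-HCl pH 7.4, counted by scintillation; percent inhibition calculated, reference ligand defining non-specific binding.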

[3] = molecular target: T3, Human melanin-concentrating hormone (MCH1) (Homo sapiens, UniProt Q99705); experiment: Radioligand binding, human melanin-concentrating hormone MCH1 membranes, FlashPlate, [125I]-S36057; conditions: compound at 10 μM; for A6 radioligand binding inhibition: human MCH1 membranes
T3 construct: purchased Perkin Elmer Biosignal
T3 sequence (Q99705 whole entry): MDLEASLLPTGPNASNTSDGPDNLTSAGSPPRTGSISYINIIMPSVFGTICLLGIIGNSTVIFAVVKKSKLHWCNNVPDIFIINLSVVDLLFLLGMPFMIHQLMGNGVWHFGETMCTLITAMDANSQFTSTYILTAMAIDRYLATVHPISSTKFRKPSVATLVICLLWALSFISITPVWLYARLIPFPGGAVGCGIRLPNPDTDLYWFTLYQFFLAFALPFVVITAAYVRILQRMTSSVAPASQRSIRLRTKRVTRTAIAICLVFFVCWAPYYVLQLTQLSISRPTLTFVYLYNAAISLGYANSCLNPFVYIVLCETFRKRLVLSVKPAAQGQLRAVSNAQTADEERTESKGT
In short: as §1

[4] = molecular target: T4, Human melanocortin (MC5) (Homo sapiens, UniProt P33032); experiment: Radioligand binding, human melanocortin MC5 membranes, FlashPlate, [125I]-NDP-αMSH; conditions: compound at 10 μM; for A5 radioligand binding inhibition: human melanocortin MC5 membranes
T4 construct: purchased Perkin Elmer Biosignal
T4 sequence (P33032 whole entry): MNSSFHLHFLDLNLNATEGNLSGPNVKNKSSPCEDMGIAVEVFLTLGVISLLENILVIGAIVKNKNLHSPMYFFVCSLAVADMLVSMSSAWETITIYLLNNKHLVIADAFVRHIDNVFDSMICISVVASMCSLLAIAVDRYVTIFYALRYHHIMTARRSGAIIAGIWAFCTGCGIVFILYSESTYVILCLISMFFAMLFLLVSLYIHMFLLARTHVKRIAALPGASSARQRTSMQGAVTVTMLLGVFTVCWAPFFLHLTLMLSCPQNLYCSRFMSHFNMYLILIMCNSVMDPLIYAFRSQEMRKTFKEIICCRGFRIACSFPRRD
In short: as §1

[5] = molecular target: T5, Human neuropeptide Y (NPY-Y1) (Homo sapiens, UniProt P25929); experiment: Radioligand binding, human neuropeptide Y NPY-Y1 membranes, FlashPlate, [125I]-PYY; conditions: compound at 10 μM
T5 construct: purchased Perkin Elmer Biosignal
T5 sequence (P25929 1-384): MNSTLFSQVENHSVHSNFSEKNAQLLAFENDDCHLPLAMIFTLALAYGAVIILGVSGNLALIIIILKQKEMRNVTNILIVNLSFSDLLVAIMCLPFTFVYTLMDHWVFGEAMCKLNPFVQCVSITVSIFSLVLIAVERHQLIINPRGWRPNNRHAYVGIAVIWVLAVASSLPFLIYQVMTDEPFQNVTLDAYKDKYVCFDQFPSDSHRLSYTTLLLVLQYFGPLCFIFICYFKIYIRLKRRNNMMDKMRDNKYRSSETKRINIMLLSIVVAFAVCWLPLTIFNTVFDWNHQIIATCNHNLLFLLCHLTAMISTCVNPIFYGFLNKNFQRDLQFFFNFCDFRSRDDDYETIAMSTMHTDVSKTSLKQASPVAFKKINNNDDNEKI
In short: as §1

[6] = molecular target: T6, Human μ-opioid (MOP) (Homo sapiens, UniProt P35372); experiment: Radioligand binding, human μ-opioid (MOP) membranes, FlashPlate, [3H]-Naloxone; conditions: compound at 10 μM; for A7 radioligand binding inhibition: human μ-opioid (MOP) membranes
T6 construct: purchased Perkin Elmer Biosignal
T6 sequence (P35372 whole entry): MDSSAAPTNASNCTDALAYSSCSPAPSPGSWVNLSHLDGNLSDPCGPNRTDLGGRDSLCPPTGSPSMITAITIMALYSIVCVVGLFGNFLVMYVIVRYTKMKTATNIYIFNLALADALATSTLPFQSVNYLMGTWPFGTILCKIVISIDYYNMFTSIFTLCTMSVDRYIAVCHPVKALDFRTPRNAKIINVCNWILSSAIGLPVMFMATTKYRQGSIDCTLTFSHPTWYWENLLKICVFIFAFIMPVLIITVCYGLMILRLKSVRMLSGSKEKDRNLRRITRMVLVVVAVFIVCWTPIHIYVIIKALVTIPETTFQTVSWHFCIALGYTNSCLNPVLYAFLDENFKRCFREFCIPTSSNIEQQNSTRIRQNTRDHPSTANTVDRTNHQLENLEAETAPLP
In short: as §1

[7] = molecular target: T7, Mouse urotensin (mUR2) (Mus musculus, UniProt Q8VIH9); experiment: Radioligand binding, mouse urotensin mUR2 membranes, FlashPlate, [125I]-Urotensin II; conditions: compound at 10 μM; for A11 radioligand binding inhibition: mouse urotensin mUR2 membranes
T7 construct: purchased Perkin Elmer Biosignal
T7 sequence (Q8VIH9 1-385): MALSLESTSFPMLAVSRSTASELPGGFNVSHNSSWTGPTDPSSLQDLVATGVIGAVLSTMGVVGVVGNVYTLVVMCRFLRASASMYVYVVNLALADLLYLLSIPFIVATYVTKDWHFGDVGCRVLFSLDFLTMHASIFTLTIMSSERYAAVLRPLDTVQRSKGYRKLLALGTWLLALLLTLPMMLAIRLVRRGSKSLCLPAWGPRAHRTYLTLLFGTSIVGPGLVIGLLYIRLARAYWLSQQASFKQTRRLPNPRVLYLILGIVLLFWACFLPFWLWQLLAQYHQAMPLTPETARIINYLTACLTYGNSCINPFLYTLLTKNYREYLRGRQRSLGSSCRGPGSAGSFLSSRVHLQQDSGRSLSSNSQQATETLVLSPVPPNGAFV
In short: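 Cloned mouse urotensin (mUR2) receptor membranes from Perkin Elmer Biosignal were immobilized in FlashPlate microplates using a proprietary coating. Each well got 19.5 μl buffer, then 0.5 μl of DMSO, reference ligand, or compound. Adding 5 μl of [125I]-Urotensin II, diluted to 5× final concentration in binding buffer, started binding. Plates were sealed with TopSeal-A and incubated 1 hour at room temperature in the dark. Wells were counted for 30 seconds each on a TopCount after a 60-second delay, and percentage inhibition was calculated.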

[8] = molecular target: T8, Human Melanocortin (MC4) (Homo sapiens, UniProt P32245); experiment: Radioligand binding, human melanocortin MC4 membranes, FlashPlate, [125I]-NDP-αMSH; conditions: compound at 10 μM; for A4 radioligand binding inhibition: human melanocortin MC4 membranes
T8 construct: purchased Perkin Elmer Biosignal
T8 sequence (P32245 whole entry): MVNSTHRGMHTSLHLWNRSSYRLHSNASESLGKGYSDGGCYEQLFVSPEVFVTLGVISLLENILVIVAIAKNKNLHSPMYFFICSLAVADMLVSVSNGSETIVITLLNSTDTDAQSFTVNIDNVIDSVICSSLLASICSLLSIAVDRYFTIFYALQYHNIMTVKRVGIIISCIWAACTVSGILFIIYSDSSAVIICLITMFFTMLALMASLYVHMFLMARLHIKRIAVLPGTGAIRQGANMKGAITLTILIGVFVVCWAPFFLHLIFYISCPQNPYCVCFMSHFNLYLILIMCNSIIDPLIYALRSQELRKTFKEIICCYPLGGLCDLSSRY
In short: as §1

[9] = molecular target: T9, Human δ-opioid (DOP) (Homo sapiens, UniProt P41143); experiment: Radioligand binding, human δ-opioid (DOP) membranes, FlashPlate, [3H]-Bremazocine; conditions: compound at 10 μM; for A1 radioligand binding inhibition: human δ-opioid (DOP) membranes
T9 construct: purchased Perkin Elmer Biosignal
T9 sequence (P41143 whole entry): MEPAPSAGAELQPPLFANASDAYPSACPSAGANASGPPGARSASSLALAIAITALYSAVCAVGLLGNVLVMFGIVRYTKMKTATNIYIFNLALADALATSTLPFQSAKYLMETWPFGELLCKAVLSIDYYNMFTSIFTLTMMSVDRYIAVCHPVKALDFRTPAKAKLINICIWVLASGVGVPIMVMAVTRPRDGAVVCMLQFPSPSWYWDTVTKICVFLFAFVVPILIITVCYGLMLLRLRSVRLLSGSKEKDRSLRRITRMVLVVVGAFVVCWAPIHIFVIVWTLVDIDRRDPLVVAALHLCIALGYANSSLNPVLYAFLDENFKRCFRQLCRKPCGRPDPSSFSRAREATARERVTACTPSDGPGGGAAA
In short: as §1

[10] = molecular target: T10, Human opioid (ORL1) (Homo sapiens, UniProt P41146); experiment: Radioligand binding, human opioid ORL1 membranes, FlashPlate, [125I]-Nociceptin; conditions: compound at 10 μM
T10 construct: purchased Perkin Elmer Biosignal
T10 sequence (P41146 whole entry): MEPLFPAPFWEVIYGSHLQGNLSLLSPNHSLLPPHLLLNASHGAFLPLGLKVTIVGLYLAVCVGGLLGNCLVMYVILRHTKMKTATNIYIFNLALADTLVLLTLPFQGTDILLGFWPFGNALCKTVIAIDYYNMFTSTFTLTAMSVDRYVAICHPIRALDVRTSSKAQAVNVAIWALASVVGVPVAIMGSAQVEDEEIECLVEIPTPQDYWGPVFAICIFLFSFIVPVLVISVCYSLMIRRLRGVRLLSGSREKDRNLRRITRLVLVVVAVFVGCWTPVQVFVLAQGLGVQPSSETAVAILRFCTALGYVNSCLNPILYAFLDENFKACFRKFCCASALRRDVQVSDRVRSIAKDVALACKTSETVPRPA
In short: as §1

[11] = molecular target: T11, Human κ-Opioid (KOP) (Homo sapiens, UniProt P41145); experiment: Radioligand binding, human κ-opioid (KOP) membranes, filtration, [3H]-Diprenorphine; conditions: compound at 10 μM; for A2 radioligand binding inhibition: human κ-opioid (KOP) membranes
T11 construct: purchased Perkin Elmer Biosignal
T11 sequence (P41145 whole entry): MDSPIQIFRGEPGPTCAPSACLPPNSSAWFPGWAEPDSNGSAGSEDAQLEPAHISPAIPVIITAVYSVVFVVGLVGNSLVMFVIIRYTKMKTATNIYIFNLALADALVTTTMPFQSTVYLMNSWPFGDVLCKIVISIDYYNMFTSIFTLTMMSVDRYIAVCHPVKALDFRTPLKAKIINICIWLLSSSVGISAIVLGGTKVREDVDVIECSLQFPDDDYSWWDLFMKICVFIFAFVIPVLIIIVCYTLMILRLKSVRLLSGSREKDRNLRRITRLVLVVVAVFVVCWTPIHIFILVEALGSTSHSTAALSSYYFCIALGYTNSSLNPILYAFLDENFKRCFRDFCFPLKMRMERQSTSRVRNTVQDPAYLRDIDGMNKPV
In short: as §2

T1 sequence (P41968 whole entry): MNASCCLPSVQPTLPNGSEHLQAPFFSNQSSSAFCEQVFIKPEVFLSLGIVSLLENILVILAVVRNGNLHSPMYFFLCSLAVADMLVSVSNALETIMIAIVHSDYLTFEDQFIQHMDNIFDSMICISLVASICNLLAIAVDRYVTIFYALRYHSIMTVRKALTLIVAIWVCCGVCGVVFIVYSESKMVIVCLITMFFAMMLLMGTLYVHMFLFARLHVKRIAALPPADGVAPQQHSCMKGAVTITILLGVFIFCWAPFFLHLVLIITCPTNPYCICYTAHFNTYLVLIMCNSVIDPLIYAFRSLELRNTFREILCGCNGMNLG

CO[C@H]1[C@H](O)[C@@H](COCc2ccc(Cl)cc2)OC(OCc2ccc(Cl)cc2)[C@@H]1NC(=O)CCNC(=N)N (stereo partly shown) [compound 106]
A3 radioligand binding, percentage inhibition ([1]; [125I]-NDP-αMSH): + (“+” indicates greater than 50% inhibition at 10 μM) | A8 radioligand binding, percentage inhibition ([2]; [125I]-Substance P): + (“+” indicates greater than 50% inhibition at 10 μM) | A6 radioligand binding, percentage inhibition ([3]; [125I]-S36057): − (“−” indicates less than 50% inhibition at 10 μM) | A5 radioligand binding, percentage inhibition ([4]; [125I]-NDP-αMSH): + (“+” indicates greater than 50% inhibition at 10 μM) | A9 radioligand binding, percentage inhibition ([5]; [125I]-PYY): − (“−” indicates less than 50% inhibition at 10 μM) | A7 radioligand binding, percentage inhibition ([6]; [3H]-Naloxone): − (“−” indicates less than 50% inhibition at 10 μM) | A11 radioligand binding, percentage inhibition ([7]; [125I]-Urotensin II): − (“−” indicates less than 50% inhibition at 10 μM) | A4 radioligand binding, percentage inhibition ([8]; [125I]-NDP-αMSH): + (“+” indicates greater than 50% inhibition at 10 μM) | A1 radioligand binding, percentage inhibition ([9]; [3H]-Bremazocine): − (“−” indicates less than 50% inhibition at 10 μM) | A10 radioligand binding, percentage inhibition ([10]; [125I]-Nociceptin): − (“−” indicates less than 50% inhibition at 10 μM) | A2 radioligand binding, percentage inhibition ([11]; [3H]-Diprenorphine): − (“−” indicates less than 50% inhibition at 10 μM)

N=C(N)NCCC(=O)NC1C(OCc2ccc(-c3ccccc3)cc2)OC(COCc2ccccc2)C(O)C1OCc1ccc(-c2ccccc2)cc1 (stereo not shown) [compound 415]
A3: inhibition of radioligand binding ([1]; [125I]-NDP-αMSH, human MC3 membranes): + (“+” indicates greater than 50% inhibition at 10 μM) | A8: inhibition of radioligand binding ([2]; [125I]-Substance P, human NK1 membranes): + (“+” indicates greater than 50% inhibition at 10 μM) | A6: inhibition of radioligand binding ([3]; [125I]-S36057, human MCH1 membranes): + (“+” indicates greater than 50% inhibition at 10 μM) | A5: inhibition of radioligand binding ([4]; [125I]-NDP-αMSH, human MC5 membranes): + (“+” indicates greater than 50% inhibition at 10 μM) | A9: inhibition of radioligand binding ([5]; [125I]-PYY, human NPY-Y1 membranes): − (“−” indicates less than 50% inhibition at 10 μM) | A7: inhibition of radioligand binding ([6]; [3H]-Naloxone, human MOP membranes): − (“−” indicates less than 50% inhibition at 10 μM) | A11: inhibition of radioligand binding ([7]; [125I]-Urotensin II, mouse mUR2 membranes): − (“−” indicates less than 50% inhibition at 10 μM) | A4: inhibition of radioligand binding ([8]; [125I]-NDP-αMSH, human MC4 membranes): + (“+” indicates greater than 50% inhibition at 10 μM) | A1: inhibition of radioligand binding ([9]; [3H]-Bremazocine, human DOP membranes): − (“−” indicates less than 50% inhibition at 10 μM) | A10: inhibition of radioligand binding ([10]; [125I]-Nociceptin, human ORL1 membranes): − (“−” indicates less than 50% inhibition at 10 μM) | A2: inhibition of radioligand binding ([11]; [3H]-Diprenorphine, human KOP membranes): − (“−” indicates less than 50% inhibition at 10 μM)

COCC1OC(OCc2ccc(Cl)cc2)C(NC(=O)CCCN)C(OCc2ccc(-c3ccccc3)cc2)C1O (stereo not shown) [compound 207]
A3: inhibition of radioligand binding ([1]; [125I]-NDP-αMSH, FlashPlate): + (“+” indicates greater than 50% inhibition at 10 μM) | A8: inhibition of radioligand binding ([2]; [125I]-Substance P, filtration): + (“+” indicates greater than 50% inhibition at 10 μM) | A6: inhibition of radioligand binding ([3]; [125I]-S36057, FlashPlate): − (“−” indicates less than 50% inhibition at 10 μM) | A5: inhibition of radioligand binding ([4]; [125I]-NDP-αMSH, FlashPlate): + (“+” indicates greater than 50% inhibition at 10 μM) | A9: inhibition of radioligand binding ([5]; [125I]-PYY, FlashPlate): − (“−” indicates less than 50% inhibition at 10 μM) | A7: inhibition of radioligand binding ([6]; [3H]-Naloxone, FlashPlate): − (“−” indicates less than 50% inhibition at 10 μM) | A11: inhibition of radioligand binding ([7]; [125I]-Urotensin II, FlashPlate): − (“−” indicates less than 50% inhibition at 10 μM) | A4: inhibition of radioligand binding ([8]; [125I]-NDP-αMSH, FlashPlate): − (“−” indicates less than 50% inhibition at 10 μM) | A1: inhibition of radioligand binding ([9]; [3H]-Bremazocine, FlashPlate): − (“−” indicates less than 50% inhibition at 10 μM) | A10: inhibition of radioligand binding ([10]; [125I]-Nociceptin, FlashPlate): − (“−” indicates less than 50% inhibition at 10 μM) | A2: inhibition of radioligand binding ([11]; [3H]-Diprenorphine, filtration): − (“−” indicates less than 50% inhibition at 10 μM)

COC[C@H]1OC(OCc2ccc(-c3ccccc3)cc2)[C@H](NC(=O)CCNC(=N)N)[C@@H](OCc2ccccc2)[C@@H]1O (stereo partly shown) [compound 7]
A3 radioligand binding inhibition [1]: − (“−” indicates less than 50% inhibition at 10 μM) | A8 radioligand binding inhibition [2]: + (“+” indicates greater than 50% inhibition at 10 μM) | A6 radioligand binding inhibition [3]: + (“+” indicates greater than 50% inhibition at 10 μM) | A5 radioligand binding inhibition [4]: − (“−” indicates less than 50% inhibition at 10 μM) | A9 radioligand binding inhibition ([5]; human NPY-Y1 membranes): − (“−” indicates less than 50% inhibition at 10 μM) | A7 radioligand binding inhibition [6]: + (“+” indicates greater than 50% inhibition at 10 μM) | A11 radioligand binding inhibition [7]: − (“−” indicates less than 50% inhibition at 10 μM) | A4 radioligand binding inhibition [8]: − (“−” indicates less than 50% inhibition at 10 μM) | A1 radioligand binding inhibition [9]: − (“−” indicates less than 50% inhibition at 10 μM) | A10 radioligand binding inhibition ([10]; human ORL1 membranes): − (“−” indicates less than 50% inhibition at 10 μM) | A2 radioligand binding inhibition [11]: − (“−” indicates less than 50% inhibition at 10 μM)

COC[C@H]1OC(OCc2ccc(Cl)cc2)[C@H](NC(=O)CCCNC(=N)N)[C@@H](OCc2ccc(Cl)cc2)[C@@H]1O (stereo partly shown) [compound 39]
A3 radioligand binding inhibition [1]: − (“−” indicates less than 50% inhibition at 10 μM) | A8 radioligand binding inhibition [2]: + (“+” indicates greater than 50% inhibition at 10 μM) | A6 radioligand binding inhibition [3]: + (“+” indicates greater than 50% inhibition at 10 μM) | A5 radioligand binding inhibition [4]: − (“−” indicates less than 50% inhibition at 10 μM) | A9 radioligand binding inhibition ([5]; human NPY-Y1 membranes): − (“−” indicates less than 50% inhibition at 10 μM) | A7 radioligand binding inhibition [6]: − (“−” indicates less than 50% inhibition at 10 μM) | A11 radioligand binding inhibition [7]: − (“−” indicates less than 50% inhibition at 10 μM) | A4 radioligand binding inhibition [8]: − (“−” indicates less than 50% inhibition at 10 μM) | A1 radioligand binding inhibition [9]: − (“−” indicates less than 50% inhibition at 10 μM) | A10 radioligand binding inhibition ([10]; human ORL1 membranes): − (“−” indicates less than 50% inhibition at 10 μM) | A2 radioligand binding inhibition [11]: − (“−” indicates less than 50% inhibition at 10 μM)
